“Also recorded” adds a separate entry of the source. Where two headings read alike, the source gives them in different places. Each block holds one compound with its values, some of them ahead of it. Square brackets hold non-standard residues; d marks the D form. Peptide text beside a SMILES is read from it. Nle = CCCC[C@H](N)C(=O)O
Columns and labels:
μI-II (C115S) [1] = target: T1, μI-II (C115S) (Rattus norvegicus, UniProt P97571, C115S); assay: Intrinsic tryptophan fluorescence of μI-II during Ca2+ titration; format: binding; details: for ability to substitute for CaCl2 in the intrinsic tryptophan fluorescence change: concentrations up to 30 mM
T1 construct: extended from residue 29 (MG^29RHENA-) to residue 356; added N-terminal Met (N); made in house; host or cells: E. coli BL21 (DE3)
T1 sequence (P97571 29-356 C115S): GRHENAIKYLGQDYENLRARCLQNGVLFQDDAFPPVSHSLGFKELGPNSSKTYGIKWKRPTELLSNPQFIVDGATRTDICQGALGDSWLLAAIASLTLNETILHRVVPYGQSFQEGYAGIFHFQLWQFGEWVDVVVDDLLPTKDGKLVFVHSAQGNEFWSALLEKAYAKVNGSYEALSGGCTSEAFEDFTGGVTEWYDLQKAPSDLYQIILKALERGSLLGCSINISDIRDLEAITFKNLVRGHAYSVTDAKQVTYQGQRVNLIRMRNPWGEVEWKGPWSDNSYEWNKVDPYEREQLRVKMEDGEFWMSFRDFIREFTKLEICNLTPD
Procedure: Intrinsic tryptophan fluorescence measurements were performed in a Perkin Elmer LS50B fluorescence spectrophotometer at 22° C. using a stirrer-adapted 4 mL cuvette (Helmma). Excitation and emission wavelength were set at 280 nm and 340 nm, respectively. The reaction buffer was the same as that used for activity measurements against SLY-MCA, and the protein concentration was 0.65 μM. […] CaCl2 (50 mM) dissolved in the reaction buffer was pumped continuously (4 μL/min, Harvard Apparatus pump 22) using a 250 μL microsyringe (Hamilton-microliter 1000 series gastight) through a tube into the cuvette. The reaction mixture was vigorously mixed using the internal magnetic stirrer of the fluorimeter. The fluorescence intensity was corrected for dilution, and the normalised data was fitted to the Hill equation y=x^n/k^n+x^n), where y is the fraction of maximum intensity change, k=[Ca^2+]0.5 (the value of [Ca^2+] at which half-maximum intensity change is observed, n is the Hill coefficient, and x is [Ca^2+]. Intrinsic tryptophan fluorescence measurements were also performed under the same buffer conditions but substituting for CaCl2, either MgCl2, MnCl2, or ZnCl2 up to 30 mM. To test the aggregation state of the domain I–II constructs, relative 90° light scattering was monitored under the same reaction conditions by setting both the excitation and emission wavelength of the spectrophotometer to 320 nm. No significant aggregation was detected even at the highest CaCl2 concentration (30 mM) tested.

[2] = target: T2, μI-II (domain I-II construct from μ-calpain) (Rattus norvegicus, UniProt P97571); assay: Proteolytic activity of μI-II against synthetic peptide substrate SLY-MCA; format: biochemical; details: for inhibition of μI-II protease activity: qualitative, data not shown
T2 construct: extended from residue 29 (MG^29RHENA-) to residue 356; added N-terminal Met (N); made in house; host or cells: E. coli BL21 (DE3)
T2 sequence (P97571 29-356): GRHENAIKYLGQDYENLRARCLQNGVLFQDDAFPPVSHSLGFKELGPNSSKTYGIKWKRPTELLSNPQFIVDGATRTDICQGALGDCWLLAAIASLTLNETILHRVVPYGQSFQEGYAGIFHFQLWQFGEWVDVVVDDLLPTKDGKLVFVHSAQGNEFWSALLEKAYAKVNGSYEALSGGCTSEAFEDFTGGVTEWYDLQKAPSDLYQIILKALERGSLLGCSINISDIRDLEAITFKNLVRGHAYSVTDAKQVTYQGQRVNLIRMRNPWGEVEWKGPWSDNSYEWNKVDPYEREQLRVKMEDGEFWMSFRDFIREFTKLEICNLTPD
Procedure: (§1) Proteolytic digestion of the C105S m-calpain heterodimer was performed at 22° C. in a final volume of less than 150 μL, in 50 mM HEPES pH 7.6, 1 mg/mL calpain, 0.15 mg/mL μI-II, without divalent cations, or with 1 mM CaCl2 or 1 mM MgCl2. Autolysis of μI-II was performed under the same conditions but instead of the C105S m-calpain substrate, 2.5 mg/mL of μI-II was used. The reaction was stopped by the addition of 2×SDS sample buffer. At specific time intervals aliquots were removed and analyzed by SDS-PAGE using a 9% gel. Control reactions lacked the protease domain I–II. The activity of μI-II against the peptide substrate SLY-MCA (Sigma) was also tested in 50 mM HEPES pH 7.6, 200 mM NaCl, 1 mM DTT, 5–30 mM divalent cation (CaCl2, MgCl2, MnCl2, or ZnCl2), 0.75 mM SLY-MCA, 2.5 μM μI-II, in a final volume of 3 mL. MCA release was monitored in a LS50B Perkin Elmer luminescence spectrometer set with excitation and the emission wavelengths at 360 nm and 460 nm, respectively. Steady-state kinetics analysis was performed under the same buffer conditions but in the presence of 0.5 mM CaCl2, by varying SLY-MCA concentration from 0.02–1.5 mM. The steady-state parameters (kcat and KM) were obtained from the Michaelis-Menten plot.

μI-II [3] = target: T3, μI-II (Rattus norvegicus, UniProt P97571); assay: Proteolysis of inactive C105S m-calpain heterodimer by μI-II; format: biochemical; details: 1 mM MgCl2
T3 construct: extended from residue 29 (MG^29RHENA-) to residue 356; added N-terminal Met (N); made in house; host or cells: E. coli BL21 (DE3)
T3 sequence (P97571 29-356): as above
Procedure: as §1

μI-II [4] = target: T3, μI-II; assay: Autolysis of μI-II in 1 mM CaCl2 (SDS-PAGE); details: 1 mM CaCl2, 20 hours
Procedure: as §1

μI-II (C115S) [5] = target: T1, μI-II (C115S); assay: Intrinsic tryptophan fluorescence of μI-II during Ca2+ titration; format: binding; details: read-out: Ca2+ requirement for activation of μI-II
intact μ-calpain = target: T4, intact μ-calpain (Homo sapiens, UniProt P07384); details: reported values; read-out: Ca2+ for half-maximal activation of intact μ-calpain; cited from earlier work
T4 sequence (P07384 1-714): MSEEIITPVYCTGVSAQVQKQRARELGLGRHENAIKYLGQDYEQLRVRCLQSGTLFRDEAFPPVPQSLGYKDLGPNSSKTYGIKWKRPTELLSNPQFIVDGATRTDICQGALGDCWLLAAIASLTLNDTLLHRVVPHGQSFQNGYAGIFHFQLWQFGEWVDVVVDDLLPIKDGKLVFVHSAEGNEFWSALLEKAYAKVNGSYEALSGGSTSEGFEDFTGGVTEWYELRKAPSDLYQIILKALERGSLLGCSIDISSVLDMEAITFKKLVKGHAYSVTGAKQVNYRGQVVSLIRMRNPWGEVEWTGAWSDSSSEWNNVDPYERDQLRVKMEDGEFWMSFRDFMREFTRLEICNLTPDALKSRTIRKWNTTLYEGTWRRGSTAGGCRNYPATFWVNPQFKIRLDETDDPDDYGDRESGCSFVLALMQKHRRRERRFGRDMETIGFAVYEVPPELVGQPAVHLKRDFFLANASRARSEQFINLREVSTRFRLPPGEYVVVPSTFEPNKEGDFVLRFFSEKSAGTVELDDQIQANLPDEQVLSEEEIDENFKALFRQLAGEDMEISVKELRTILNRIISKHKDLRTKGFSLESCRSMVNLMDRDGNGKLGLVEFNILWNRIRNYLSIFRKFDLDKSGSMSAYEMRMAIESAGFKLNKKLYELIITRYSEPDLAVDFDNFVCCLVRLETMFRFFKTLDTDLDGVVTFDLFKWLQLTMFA
T4 sequence (P04632 1-268 partner): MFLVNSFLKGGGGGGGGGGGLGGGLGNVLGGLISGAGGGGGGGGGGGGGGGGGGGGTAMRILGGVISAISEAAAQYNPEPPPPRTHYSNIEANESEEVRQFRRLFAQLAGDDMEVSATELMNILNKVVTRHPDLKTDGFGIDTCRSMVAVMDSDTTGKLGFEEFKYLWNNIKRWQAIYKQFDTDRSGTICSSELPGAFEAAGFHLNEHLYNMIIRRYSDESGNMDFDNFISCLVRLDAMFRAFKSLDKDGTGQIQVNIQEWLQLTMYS

Compound: CC(C)C[C@H](NC(=O)[C@H]1O[C@@H]1C(=O)O)C(=O)NCCCCN=C(N)N (relative stereo) [E64, trans-epoxysuccinyl-L-leucilamido(4-guanidino)-butane]
SLY-MCA hydrolysis by E64-reacted μI-II (μI-II-E64) ([2]; C115 μI-II reacted with E64 in 5 mM CaCl2): unable to hydrolyse SLY-MCA | inhibition of μI-II protease activity [2]: abolished; also recorded: inhibited | effect on W298 fluorescence of μI-II (μI-II (C115S) [1]; μI-II-E64 complex): quenching

Compound: [Cl-].[Cl-].[Mg+2] [MgCl2]
proteolysis of C105S m-calpain by μI-II when substituted for Ca2+ (μI-II [3]): no proteolysis | ability to substitute for CaCl2 in the intrinsic tryptophan fluorescence change (μI-II (C115S) [1]): unable to substitute

Compound: [Ca+2].[Cl-].[Cl-] [CaCl2]
EC50 (μI-II (C115S) [5]): ~40 µM | EC50 (intact μ-calpain): 5 to 50 µM | CaCl2 concentration at which the fluorescence increase was >99% complete (μI-II (C115S) [1]): ~500 µM | CaCl2 concentration at which the fluorescence increase was first noticeable (μI-II (C115S) [1]): ~5 µM | total increase in the fluorescence intensity (μI-II (C115S) [1]; CaCl2 titration): ~36.8±0.5% | Hill coefficient (μI-II (C115S) [1]; CaCl2 titration fitted to the Hill equation): 2.72±0.42 | EC50 (μI-II (C115S) [1]; CaCl2 titration, excitation 280 nm, emission 340 nm, read-out: half-maximal change in intrinsic tryptophan fluorescence): 41.8 ± 7.1 µM

Compound: CCCC[C@@H](C=O)NC(=O)[C@H](CC(C)C)NC(=O)[C@H](CC(C)C)NC(C)=O [calpain inhibitor I] (Ac-Leu-Leu-[Nle]-aldehyde)
inhibition of μI-II protease activity [2]: abolished; also recorded: inhibited

Compound: O=C(O)CN(CCN(CC(=O)O)CC(=O)O)CC(=O)O [EDTA, reference compound]
reversal of the Ca2+-induced fluorescence change (μI-II (C115S) [1]; data not shown): completely reversed

Compound: CC(=O)N[C@@H](CC(C)C)C(=O)N[C@@H](CC(C)C)C(=O)N[C@H](C=O)CCCNC(=N)N [leupeptin]
inhibition of μI-II protease activity [2]: abolished; also recorded: inhibited

More lines, main results first:

ability to substitute for CaCl2 in the intrinsic tryptophan fluorescence change (μI-II (C115S) [1]): unable to substitute
Compound: [Cl-].[Cl-].[Zn+2] [ZnCl2]

μI-II still present after autodigestion (μI-II [4]): Over 50%
Compound: μI-II: recombinant protease core, domains I and II (residues 29-356) of rat μ-calpain with C-terminal His tag
catalytic efficiency relative to the full enzyme ([2]; SLY-MCA digestion): ~2% | decrease in turnover (kcat) compared to intact m-calpain ([2]; SLY-MCA digestion): 35 fold

ability to substitute for CaCl2 in the intrinsic tryptophan fluorescence change (μI-II (C115S) [1]): unable to substitute
Compound: [Cl][Mn][Cl] [MnCl2]
